The record followed here is ChEMBL document CHEMBL1156596, “Overcoming undesirable CYP1A2 inhibition of pyridylnaphthalene-type aldosterone synthase inhibitors: influence of heteroaryl derivatization on potency and selectivity” (J Med Chem, 2008).

The target of series [1] is Cytochrome P450 2C9 (Homo sapiens, UniProt P11712). The series can be described thus: Inhibition of human recombinant CYP2C9 expressed in insect microsomes. Type of series: ADME, Microsome.
Series [2] can be described thus: Plasma concentration in Wistar rat plasma at 5 mg/kg, po after 1 hr. Type of series: ADME, organism-based. More on the design: dose 5 mg/kg, route oral.
Series [3] has as its target Cytochrome P450 2D6 (Homo sapiens, UniProt P10635). The series is described as follows: Inhibition of human recombinant CYP2D6 expressed in insect microsomes. Type of series: ADME, Microsome.
Series [4] in a line: Tmax in Wistar rat at 5 mg/kg, po. Type of series: ADME, organism-based. Particulars: in vivo. More on the design: dose 5 mg/kg, route oral.
A short description of series [5]: Cmax in Wistar rat at 5 mg/kg, po. Type of series: ADME, organism-based. More on the design: dose 5 mg/kg, route oral. As to conditions: in vivo.
Series [6] in a line: Plasma concentration in Wistar rat plasma at 5 mg/kg, po after 8 hrs. Type of series: ADME, organism-based. Set-up: dose 5 mg/kg, route oral.
The nature of series [7]: Plasma concentration in Wistar rat plasma at 5 mg/kg, po after 4 hrs. Type of series: ADME, organism-based. More on the design: dose 5 mg/kg, route oral.
The species entered for series [8] is Homo sapiens. The series can be described thus: Selectivity ratio of IC50 for human CYP11B1 to IC50 for human CYP11B2.
The nature of series [9]: Terminal half life in Wistar rat at 5 mg/kg, po. Type of series: ADME, organism-based. Set-up: dose 5 mg/kg, route oral. As to conditions: in vivo.
Series [10] addresses T1, Cytochrome P450 11B2, mitochondrial (Homo sapiens, UniProt P19099).
T1 sequence (P19099 whole entry): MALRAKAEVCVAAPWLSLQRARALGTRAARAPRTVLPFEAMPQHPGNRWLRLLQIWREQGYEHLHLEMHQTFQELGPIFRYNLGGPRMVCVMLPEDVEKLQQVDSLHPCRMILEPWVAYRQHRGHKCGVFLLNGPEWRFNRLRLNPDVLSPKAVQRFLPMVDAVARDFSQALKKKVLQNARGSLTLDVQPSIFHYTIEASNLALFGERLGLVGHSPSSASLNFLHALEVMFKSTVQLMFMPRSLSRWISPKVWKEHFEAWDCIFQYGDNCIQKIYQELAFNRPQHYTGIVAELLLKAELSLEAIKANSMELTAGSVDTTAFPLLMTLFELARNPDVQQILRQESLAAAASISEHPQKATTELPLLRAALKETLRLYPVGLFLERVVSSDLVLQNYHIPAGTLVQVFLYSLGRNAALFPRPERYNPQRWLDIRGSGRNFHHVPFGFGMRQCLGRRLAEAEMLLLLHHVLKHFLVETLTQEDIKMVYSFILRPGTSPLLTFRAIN

The target of series [11] is T2, CYP1A2 (Homo sapiens, UniProt P05177).
T2 sequence (P05177 whole entry): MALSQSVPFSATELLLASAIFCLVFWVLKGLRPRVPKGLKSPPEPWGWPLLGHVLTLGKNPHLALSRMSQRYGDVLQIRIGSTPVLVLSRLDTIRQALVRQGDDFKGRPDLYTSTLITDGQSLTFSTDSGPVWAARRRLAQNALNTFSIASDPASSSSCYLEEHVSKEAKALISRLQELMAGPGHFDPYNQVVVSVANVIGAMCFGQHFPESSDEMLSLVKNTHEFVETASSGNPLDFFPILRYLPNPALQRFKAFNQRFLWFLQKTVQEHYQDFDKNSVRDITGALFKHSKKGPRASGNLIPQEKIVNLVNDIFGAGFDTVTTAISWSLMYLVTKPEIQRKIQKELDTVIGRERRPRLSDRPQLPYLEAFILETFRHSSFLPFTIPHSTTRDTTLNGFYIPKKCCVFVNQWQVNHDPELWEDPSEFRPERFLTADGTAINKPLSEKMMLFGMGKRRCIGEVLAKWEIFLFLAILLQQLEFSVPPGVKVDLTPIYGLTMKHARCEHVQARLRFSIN
The series is described as follows: Inhibition of human recombinant CYP1A2 expressed in insect microsomes at 2 uM. Type of series: ADME, Microsome.

The target in series [12] is T3, Cytochrome P450 1A2 (Homo sapiens, UniProt P05177).
T3 sequence (P05177 whole entry): T2 sequence (P05177 whole entry)

Series [13] in a line: Plasma concentration in Wistar rat plasma at 5 mg/kg, po after 24 hrs. Type of series: ADME, organism-based. Set-up: dose 5 mg/kg, route oral.
In series [14] the target is Cytochrome P450 3A4 (Homo sapiens, UniProt P08684). The series is described as follows: Inhibition of human recombinant CYP3A4 expressed in insect microsomes. Type of series: ADME, Microsome.
Series [15] addresses T4, Cytochrome P450 11B1, mitochondrial (Homo sapiens, UniProt P15538).
T4 sequence (P15538 whole entry): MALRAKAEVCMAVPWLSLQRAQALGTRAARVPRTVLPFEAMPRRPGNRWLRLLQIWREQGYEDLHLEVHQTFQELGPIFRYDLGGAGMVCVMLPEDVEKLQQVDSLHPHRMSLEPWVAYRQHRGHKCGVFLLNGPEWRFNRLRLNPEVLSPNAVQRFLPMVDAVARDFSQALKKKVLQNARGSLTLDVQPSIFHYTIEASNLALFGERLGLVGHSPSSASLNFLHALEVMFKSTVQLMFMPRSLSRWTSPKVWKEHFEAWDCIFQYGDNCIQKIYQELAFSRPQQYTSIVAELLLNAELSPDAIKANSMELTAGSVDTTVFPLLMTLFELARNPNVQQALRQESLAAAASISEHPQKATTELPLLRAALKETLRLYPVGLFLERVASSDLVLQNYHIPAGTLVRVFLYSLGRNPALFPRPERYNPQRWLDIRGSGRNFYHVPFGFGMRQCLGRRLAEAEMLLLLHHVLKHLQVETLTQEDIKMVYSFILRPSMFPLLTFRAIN

The nature of series [16]: Plasma concentration in Wistar rat plasma at 5 mg/kg, po after 6 hrs. Type of series: ADME, organism-based. Set-up: dose 5 mg/kg, route oral.
Series [17] concerns the target T5, CYP17 (Homo sapiens, UniProt P05093).
T5 sequence (P05093 whole entry): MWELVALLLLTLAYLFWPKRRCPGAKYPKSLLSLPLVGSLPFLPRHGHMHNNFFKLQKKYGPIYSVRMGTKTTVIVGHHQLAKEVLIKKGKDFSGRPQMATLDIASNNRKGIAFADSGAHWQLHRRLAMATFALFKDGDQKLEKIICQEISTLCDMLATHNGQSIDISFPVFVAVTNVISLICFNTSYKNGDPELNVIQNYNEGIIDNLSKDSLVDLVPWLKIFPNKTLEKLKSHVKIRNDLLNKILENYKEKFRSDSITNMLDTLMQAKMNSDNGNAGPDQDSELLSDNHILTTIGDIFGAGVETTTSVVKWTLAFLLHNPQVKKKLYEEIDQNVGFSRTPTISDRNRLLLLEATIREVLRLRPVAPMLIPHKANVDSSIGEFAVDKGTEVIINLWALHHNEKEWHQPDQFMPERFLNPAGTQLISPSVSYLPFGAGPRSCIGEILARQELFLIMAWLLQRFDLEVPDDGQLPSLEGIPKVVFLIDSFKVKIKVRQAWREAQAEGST
The series can be described thus: Inhibition of human recombinant CYP17 expressed in Escherichia coli at 2 uM.

Series [18] is described as follows: in vivo. As to conditions: Wistar, rat, plasma, po, 5 mg/kg.

Chain of Cytochrome P450 2D6 (P10635 whole entry): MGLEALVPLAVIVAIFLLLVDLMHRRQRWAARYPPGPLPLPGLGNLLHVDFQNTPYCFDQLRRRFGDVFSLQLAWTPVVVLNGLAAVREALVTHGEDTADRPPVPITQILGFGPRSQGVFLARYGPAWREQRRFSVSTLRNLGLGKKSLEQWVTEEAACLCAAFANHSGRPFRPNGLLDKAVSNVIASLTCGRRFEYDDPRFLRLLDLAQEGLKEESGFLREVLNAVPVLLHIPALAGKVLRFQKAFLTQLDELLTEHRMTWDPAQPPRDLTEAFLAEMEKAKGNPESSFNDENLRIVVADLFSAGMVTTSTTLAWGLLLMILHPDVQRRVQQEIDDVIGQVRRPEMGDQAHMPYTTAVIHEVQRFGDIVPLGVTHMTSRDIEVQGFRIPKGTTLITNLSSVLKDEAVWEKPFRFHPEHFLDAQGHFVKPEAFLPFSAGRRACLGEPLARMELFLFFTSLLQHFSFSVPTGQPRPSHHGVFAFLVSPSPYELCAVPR
Chain of Cytochrome P450 2C9 (P11712 whole entry): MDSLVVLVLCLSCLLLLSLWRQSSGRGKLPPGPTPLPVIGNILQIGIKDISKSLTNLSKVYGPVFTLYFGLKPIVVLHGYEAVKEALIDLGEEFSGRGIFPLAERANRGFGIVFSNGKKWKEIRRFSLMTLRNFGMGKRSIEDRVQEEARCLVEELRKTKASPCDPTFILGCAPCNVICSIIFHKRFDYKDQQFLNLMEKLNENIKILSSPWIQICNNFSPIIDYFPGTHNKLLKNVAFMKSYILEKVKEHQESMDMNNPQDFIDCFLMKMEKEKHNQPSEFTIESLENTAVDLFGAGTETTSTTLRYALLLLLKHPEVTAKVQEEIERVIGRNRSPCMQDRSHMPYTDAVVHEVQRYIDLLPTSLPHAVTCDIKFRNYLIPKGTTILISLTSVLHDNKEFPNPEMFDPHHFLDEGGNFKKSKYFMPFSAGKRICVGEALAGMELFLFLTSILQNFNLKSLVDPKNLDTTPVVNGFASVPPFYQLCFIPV
Chain of Cytochrome P450 3A4 (P08684 whole entry): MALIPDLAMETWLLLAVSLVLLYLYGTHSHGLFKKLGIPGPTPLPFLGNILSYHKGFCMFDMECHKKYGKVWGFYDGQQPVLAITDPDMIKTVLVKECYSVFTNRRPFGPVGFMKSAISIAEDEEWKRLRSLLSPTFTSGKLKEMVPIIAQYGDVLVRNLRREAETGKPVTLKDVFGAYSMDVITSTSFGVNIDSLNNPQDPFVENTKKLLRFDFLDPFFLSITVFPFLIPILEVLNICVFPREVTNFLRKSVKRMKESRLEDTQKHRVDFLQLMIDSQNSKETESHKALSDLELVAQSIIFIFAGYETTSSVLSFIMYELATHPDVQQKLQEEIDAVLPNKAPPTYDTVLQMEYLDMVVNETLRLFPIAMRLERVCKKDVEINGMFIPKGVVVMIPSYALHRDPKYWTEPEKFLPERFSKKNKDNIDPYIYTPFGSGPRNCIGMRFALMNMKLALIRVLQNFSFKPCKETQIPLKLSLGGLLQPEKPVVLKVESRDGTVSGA

For orientation: IC50 means the midpoint of a concentration-inhibition curve. The Tmax is the time at which the peak concentration occurs. What is called Cmax is the peak of the concentration-time curve. One may read the half-life as the time needed for the level to fall by half in the phase considered. In general, inhibition refers to the change of the read-out against control, counted positive when it falls. A word on the AUC(0-inf): it is total exposure, with the tail of the curve extrapolated. A high value points to more exposure. For `COc1ccc2cc(-c3cncc4ccccc34)ccc2c1`, the IC50 worked out at 1270 nM in series [1]; 33100 nM in [3]; 0.6 nM in series [10]; 1620 nM in [12]; 3540 nM in series [14]; 67 nM in series [15]. Moreover, the concentration at 1 h in series [2] amounted to 34.9 ng/mL. The Tmax in [4] was 6 h. Further, the peak level in [5] (Cmax) was 81 ng/mL. In series [6], this compound returned a concentration at 8 h of 34.6 ng/mL. The concentration at 4 h in series [7] is 76.3 ng/mL. In addition, the Ratio IC50 in series [8] was found to be 112. In series [9], this compound had a half-life of 3.2 h. The values for the inhibition at 2 µM in series [11] and in series [17] were 57% and 39%, respectively. The same compound returned a concentration at 24 h in series [13] of 1.28 ng/mL. This compound returned a concentration at 6 h in series [16] of 81.4 ng/mL. The AUC(0-inf) in series [18] turned out to be 762 ng·h/mL.
